Measurements taken from patent publication US20140343095A1, “Methods of Diagnosing and Treating Multiple Sclerosis” (The Brigham and Women's Hospital, Inc., priority 2009, published 2014).

Experiments:
PARP-1 [1] = target: T1, PARP-1 (Homo sapiens, UniProt P09874); experiment: PARP-1 enzymatic activity in human PBMCs (PARP HT Universal Colorimetric Kit); type: cell-based; parameters: endogenous in cells; host or cells: human PBMCs / monocytes / dendritic cells / T and B cells from healthy controls and MS patients; conditions: healthy controls, 1 ug/ml 15-HC
Description: PARP-1 enzymatic activity (10A) and TNFalpha and CCL2 (10B) of PBMCs incubated with 15-HC alone, or in combination with AIQ, blocking antibodies to TLR2 or IC control.
To investigate whether the TLR2/PARP-1 axis is functional in human we activated PBMCs from healthy controls with 15-HC, in the presence or not of PARP-1 or TLR2 inhibitors.
Target sequence in this assay (P09874 whole entry): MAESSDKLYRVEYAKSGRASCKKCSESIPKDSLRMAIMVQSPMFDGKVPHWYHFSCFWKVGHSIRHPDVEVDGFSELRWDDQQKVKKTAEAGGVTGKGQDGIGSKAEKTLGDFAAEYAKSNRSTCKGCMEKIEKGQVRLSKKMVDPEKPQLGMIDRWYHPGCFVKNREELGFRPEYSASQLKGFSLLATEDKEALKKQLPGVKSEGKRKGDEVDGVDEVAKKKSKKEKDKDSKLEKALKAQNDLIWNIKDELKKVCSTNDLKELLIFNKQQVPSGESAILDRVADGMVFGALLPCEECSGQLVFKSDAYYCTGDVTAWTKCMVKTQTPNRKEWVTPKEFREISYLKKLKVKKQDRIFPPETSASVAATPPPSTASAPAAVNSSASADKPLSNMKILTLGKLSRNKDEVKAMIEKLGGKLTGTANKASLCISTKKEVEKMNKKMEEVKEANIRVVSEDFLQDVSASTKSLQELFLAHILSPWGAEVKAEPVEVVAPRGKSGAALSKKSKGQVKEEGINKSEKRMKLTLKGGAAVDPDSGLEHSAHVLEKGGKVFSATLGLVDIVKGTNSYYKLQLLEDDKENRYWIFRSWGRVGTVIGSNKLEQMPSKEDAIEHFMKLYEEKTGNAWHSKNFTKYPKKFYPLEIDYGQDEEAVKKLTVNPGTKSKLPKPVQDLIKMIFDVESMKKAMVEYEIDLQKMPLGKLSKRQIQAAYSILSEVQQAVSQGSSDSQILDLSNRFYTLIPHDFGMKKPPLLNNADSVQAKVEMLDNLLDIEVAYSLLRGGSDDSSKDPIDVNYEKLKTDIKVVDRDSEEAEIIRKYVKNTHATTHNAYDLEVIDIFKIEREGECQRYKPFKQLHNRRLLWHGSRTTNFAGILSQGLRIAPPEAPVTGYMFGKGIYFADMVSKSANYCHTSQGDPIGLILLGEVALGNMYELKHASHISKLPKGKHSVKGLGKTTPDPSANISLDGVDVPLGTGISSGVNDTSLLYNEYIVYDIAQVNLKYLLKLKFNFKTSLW

PARP-1 [2] = target: T1, PARP-1; experiment: PARP-1 activity in a cell-free system with oxysterol-pretreated DNA; type: biochemical
Description: FIGS. 4A-D show the results of activation of microglia, macrophages and astrocytes by 15-HC. 4A, a bar graph showing PARP-1 activity in a cell-free system where recombinant PARP-1 was incubated with DNA which as been pretreated with 15-HC or 7-KC. Non-pretreated DNA was used as a negative control and ssb-DNA as a positive control. Data is shown as Mean±SEM. 4B, a pair of bar graphs showing PARP-1 activity measured in microglia, macrophages or astrocytes incubated with 15-HC or 7-KC. The data is shown as the fold of change between vehicle and lipid-treated cells (Mean±SEM). 4C, a pair of bar graphs showing percent inhibition of PARP-1 activity in microglia, macrophages or astrocytes activated with 15-HC or 7-KC […] in the presence of 5-AIQ. 4D, a table showing levels of TNF-α, CCL-2 and NO secretion by 15-HC or 7-KC treated microglia, macrophages or astrocytes (Mean±SEM).
Thus, the effect of 15-HC on PARP-1 activity was investigated using an in vitro system.
Target sequence in this assay (P09874 whole entry, species assumed): as the sequence (P09874 whole entry) above

PARP-1 [3] = experiment: FACS PARP-1 activity in innate and adaptive immune cells treated with HSP60 or 15-HC; type: cell-based, human; conditions: HSP60 1, 5, 10 ng/ml, 15-HC 1, 5, 10 ug/ml
Excerpt: FIGS. 17A-C are bar graphs showing that 15-HC, but not HSP60, activates PARP-1 in cells of the innate immune system. Mean PARP-1 activity as determined by FACS in classical monocytes (17A), inflammatory monocytes (17B) and dendritic cells (17C) of healthy controls (HC) treated with activated with HSP60, 15-HC or left untreated. The data are shown as mean fluorescence intensity (MFI)±SD of 5 samples/group.
FIGS. 18A-C are bar graphs showing that both 15-HC and HSP60 activate PARP-1 in cells of the adaptive immune system. Mean PARP-1 activity as determined by FACS in CD4+ T cells (18A), CD8+ T cells (18B) and B cells (18C) of healthy controls (HC) treated with activated with HSP60, 15-HC or left untreated. The data are shown as mean fluorescence intensity (MFI)±SD of 5 samples/group.
A new FACS-based method was developed to detect PARP-1 activation based on the intracellular detection of the PARP-1 product PAR with specific antibodies. Briefly, the cells were incubated with antibodies to CD16/32 to block unspecific antibody binding, and then stained for surface markers. […] The samples were then analyzed by FACS.
To investigate whether the increased activity of the TLR2/PARP-1 axis in SPMS patients resulted from increased levels of TLR2 ligands, the levels of 15-HC and HSP60 were measured in serum samples from healthy controls, RRMS and SPMS patients. […]

PARP-1 [4] = target: T1, PARP-1; experiment: FACS-based detection of PARP-1 activity (PAR staining) in human monocytes / PBMCs; type: cell-based; parameters: endogenous in cells; host or cells: human PBMCs / monocytes / dendritic cells / T and B cells from healthy controls and MS patients
Description: FIGS. 11A-B are show the results of FACS-based detection of PARP-1 activity. 11A. a set of five histograms showing PAR staining (as detected by FACS) of PBMCs incubated with 15-HC alone, or in combination with AIQ, blocking antibodies to TLR2 (TLR2 BL), or IC control (TLR2 IC). 11B, a line graph showing the correlation of PAR staining as detected by FACS with PARP-1 enzymatic activity detected on PBMCs activated with different concentration of 15-HC.
14A is a set of fifteen histograms showing PAR staining of PBMCs taken from HC (left column), RRMS (center column) or SPMS (right column) patients and unstimulated (top row) or activated with 15-HC alone (second row), or in combination with AIQ (third row), blocking antibodies to TLR2 (fourth row) or IC control (bottom row). 14B is a bar graph showing the mean fluorescence intensity (MFI)±SD of 5 samples/group from the histograms in 14A.
15A is a set of 24 histograms showing PAR staining of PBMCs taken from HC (left column), RRMS (center column) or SPMS (right column) patients and unstimulated (top row) or activated with pgLPS (second row), polyIC (third row), ecLPS (fourth row), flagellin (row 5), imiquimod (row 6), ssRNA (row 7) or CpG (row 8). 15B is a bar graph showing the mean fluorescence intensity (MFI)±SD of 5 samples/group from the histograms in […].
A new FACS-based method was developed to detect PARP-1 activation based on the intracellular detection of the PARP-1 product PAR with specific antibodies. Briefly, the cells were incubated with antibodies to CD16/32 to block unspecific antibody binding, and then stained for surface markers. After washing, the cells were permeabilized with Fix/Perm (BD), and then stained with rabbit anti-PAR antibodies (or control rabbit IgG) for 30′ at 4° C., followed by anti-rabbit PE for 30′ at room temperature. The samples were then analyzed by FACS.
Target sequence in this assay (P09874 whole entry): as above

15-hydroxycholestene [15-HC]
PARP-1 enzymatic activity in human PBMCs (PARP-1 [1]): results in the activation | PARP-1 activity, oxysterol alone (PARP-1 [2]; recombinant PARP-1 incubated with 15-HC alone): did not have a significant effect | PARP-1 activity, DNA pre-incubated with oxysterol (PARP-1 [2]; recombinant PARP-1 plus DNA pretreated with 15-HC): levels comparable to those achieved with 7-KC or single strand break DNA | PARP-1 activation in cells of the adaptive immune system (FIG. 18) (PARP-1 [3]; CD4+ T cells, CD8+ T cells, B cells of healthy controls): could activate | PARP-1 activation in cells of the innate immune system (FIG. 17) (PARP-1 [3]; classical monocytes, inflammatory monocytes, dendritic cells of healthy controls): only 15-HC could activate | inhibition of 15-HC-induced PARP-1 activation in monocytes from healthy controls, RRMS and SPMS patients (PARP-1 [4]; all three experimental groups): could be inhibited | PAR staining (FACS) (PARP-1 [4]; human monocytes activated by 15-HC): significant increase
